# Source: article PMC9316000, “Preclinical Drug Pharmacokinetic, Tissue Distribution and Excretion Profiles of the Novel Limonin Derivate HY-071085 as an Anti-Inflammatory and Analgesic Candidate in Rats and Beagle Dogs” (Pharmaceuticals, 2022)
# Read-outs that look alike come from different tables or passages of the source.
# What was measured:
# [1] = Pharmacokinetics after single-dose intravenous administration in rats; type: in vivo, Sprague Dawley rats; conditions: S-IV 3.25 mg/kg; for AUC(0-inf) / AUC / MRT / half-life: rat, plasma; for AUC: read-out: AUC0-tn
# Description: The PK parameters after the intravenous administration of 3.25 mg/kg HY-071085 (before use, prepared with 5% DMSO + 95% normal saline mixture) are listed in Table 1.
# In vivo PK profiling in the rats: Sprague Dawley rats (approximately 177–221 g in weight) were purchased from Shanghai Xipur-Bikai Experimental Animal Co., Ltd. (Shanghai, China). Before the experiment, several rats were randomly divided into several groups, half males and half females in each group, fasting but free to drink water for 12 h. The dosage of the rats was dependent on the drug pharmacology: the HY-071085 active pharmaceutical ingredients were administered with a dosage volume of 0.25 mL/100 g body weight. The whole-blood samples were centrifuged at 8000 rpm for 5 min, and the plasma samples were separated and stored at –80 °C until the analysis.
# (§1) According to the obtained plasma concentration time data, the pharmacokinetic parameters were calculated using Phoenix WinNonlin 8.1 software. The pharmacokinetic parameters—i.e., the area under the curve (AUC), mean residence time (MRT), clearance rate (Cl/F) and steady-state apparent distribution volume (Vss/F)—were calculated by the method of moments, which was estimated according to the following formulae: AUCtn=∑Ci+Ci−1ti−ti−1/2 AUC∞=AUCtn+Cm/λ AUMCtn=∑tiCi+ti−1Ci−1ti−ti−1/2 AUMC∞=AUMCtn+Ctntn/λ+1/λ^2 MRT=AUMC∞/AUC∞ Cl/F=Dose/AUC Vss/F=Cl∗MRT where Ctn is the plasma concentration of tn at the last point after administration, and the elimination rate constant was obtained by ln(concentration) time linear regression.
# (§2) Due to the drug having significant individual differences in rats, it could not be uniformly fitted with a PK atrioventricular model; as such, the pharmacokinetic parameters analyzed in this study were calculated using a non-atrioventricular model. The pharmacokinetic parameters are defined as follows: Cmax is the maximum blood concentration after administration and absorption, Tmax is the time required to reach Cmax, t1/2 is the time required to eliminate half of the plasma drug concentration after the drug distribution in the body reaches equilibrium, Cl/F is the apparent clearance rate, AUC0-tn is the area under the blood concentration time curve within the dosing interval, AUC0-∞ is the area under the plasma concentration time curve from 0 to infinity, MRT is the average time that all drug molecules stay in the body, and Vss/F is the steady-state apparent distribution volume, which is the product of the clearance rate and average residence time.
# [2] = Pharmacokinetics after single-dose intragastric administration in beagle dogs; type: in vivo; conditions: both sexes, dog, plasma; for bioavailability: 1.25 mg/kg intragastric vs intravenous, from AUC0-∞, read-out: absolute oral bioavailability; for AUC: read-out: AUC0-tn; for Vd/F: read-out: Vss/F
# Description: Male and female beagle dogs were administered low (1.25 mg/kg), medium (2.5 mg/kg) and high (5 mg/kg) doses of HY-071085 by gastric gavage, and blood samples were collected from the forelimb vein at various time points before and 8 h after administration in order to analyze the concentration of HY-071085 in the plasma. The profiles of the mean plasma concentration of HY-071085 versus time in dogs are presented in Figure 7, and the PK parameters are listed in Table 2. There was no gender difference in the pharmacokinetics in dogs (Figure 8). The AUCtn ratio for the three doses was 1:3.8:11.9, and the AUC0-∞ ratio between doses was 1:3.6:11.3, which was greater than the dose increase ratio (1:2:4), as shown in Figures S3 and S4.
# In vivo PK profiling in dogs: Beagle dogs (approximately 8–10 kg in weight) were purchased from Jiangsu Yadong Experimental Animal Research Institute Co. Ltd (Nanjing, China). Before the experiment, several beagle dogs were randomly divided into several groups, half males and half females in each group. Four cycles of single-dose administration experiments were carried out, and the cleaning period was 3–5 days. Repeated-dose administration was carried out after the end of four cycles of single-dose administrations and cleaning periods. According to the dosage for the rats, the dosage for the beagle dogs was converted via the body surface area method. The HY-071085 active pharmaceutical ingredients were administered with a dosage volume of 2 mL/kg body weight. The whole-blood samples were centrifuged at 8000 rpm for 5 min, and the plasma samples were separated and stored at –80 °C until the analysis.
# as §1, §2
# [3] = Plasma protein binding, human plasma; type: in vitro ADME; conditions: mean, read-out: plasma protein binding rate (converted)
# Description: (§3) The PPB rate in dogs was about 40% at different concentrations in the concentration range (50–400 ng/mL), and in rats it was about 75%. The PPB rate in human plasma varied greatly at different concentrations, ranging from 100% at a low drug concentration to 58% at a high drug concentration, as shown in Table 4.
# [4] = Plasma protein binding, rat plasma; type: in vitro ADME; conditions: read-out: plasma protein binding rate (converted)
# Description: as §3
# [5] = Stability in rat plasma under storage conditions; type: in vitro ADME; conditions: for stability in plasma, accuracy: n=5
# Description: The stability of HY-071085 in rat plasma was evaluated by analyzing five repeated QC samples under various storage conditions: long-term freezing (freezing at −80 °C for 30 days), repeated freezing and thawing (thawing with a 37 °C water bath after freezing at −80 °C, repeated three times), normal temperature placement (a 37 °C constant temperature water bath for 8 h), and injector placement (4 °C for 24 h).
# [6] = design: method as in earlier work; conditions: Temp 25℃; cited from earlier work
# [7] = po, single-dose intragastric 2.5 mg/kg
smiles,measurement,setting,value
"CC1(C)OC2CC(=O)OCC23C1C/C(=N\OCCN1CCOCC1)C1(C)C3CC[C@@]2(C)[C@H](c3ccoc3)OC(=O)C3OC312 (stereo partly drawn) [HY-071085, (12S,12aS,E)-12-(furan-3-yl)-6,6,8a,12a-tetramethyl-8-((2-morpholinoethoxy)imino)dodecahydro-1H,3H-oxireno [2,3-d]pyrano [4’,3’:3,3a]isobenzofuro [5,4-f]isochromene-3,10(9aH)-dione]",AUC(0-inf),"[1]; Sprague Dawley, female rats",684 ± 39.2 ng·h/mL
same,AUC,"[1]; Sprague Dawley, female rats",682 ± 225 ng·h/mL
same,AUC(0-inf),"[1]; Sprague Dawley, male rats",740 ± 146 ng·h/mL
same,MRT,"[1]; Sprague Dawley, male rats",17.4 ± 2.4 min
same,AUC,"[1]; Sprague Dawley, male rats",739 ± 146 ng·h/mL
same,MRT,"[1]; Sprague-Dawley, female rats",20.4 ± 3 min
same,half-life,"[1]; Sprague-Dawley, female rats",20.4 ± 3 min
same,half-life,"[1]; Sprague-Dawley, male rats",24 ± 6 min
same,Cl/F,[1]; female rats,79.3 ± 4.5 mL/min/kg
same,Vss/F,[1]; female rats,1.63 ± 0.17 L/kg
same,Cl/F,[1]; male rats,75 ± 11.8 mL/min/kg
same,Vss/F,[1]; male rats,1.31 ± 0.18 L/kg
same,bioavailability,[2]; oral,13.1%
same,bioavailability,[2]; po,~13.1%
same,AUC(0-inf),"[2]; po, S-IG 1.25 mg/kg",54.1 ± 25.4 ng·h/mL
same,CL/F,"[2]; po, S-IG 1.25 mg/kg",517 mL/min/kg
same,Cmax,"[2]; po, S-IG 1.25 mg/kg",37.9 ± 20.1 ng/mL
same,MRT,"[2]; po, S-IG 1.25 mg/kg",80.4 ± 31.8 min
same,Tmax,"[2]; po, S-IG 1.25 mg/kg",29.4 ± 25.8 min
same,half-life,"[2]; po, S-IG 1.25 mg/kg",52.8 ± 26.4 min
same,AUC,"[2]; po, S-IG 1.25 mg/kg",51.1 ± 24.9 ng·h/mL
same,Vd/F,"[2]; po, S-IG 1.25 mg/kg",35.3 ± 19.1 L/kg
same,AUC(0-inf),"[2]; po, S-IG 5 mg/kg",610 ± 235 ng·h/mL
same,CL/F,"[2]; po, S-IG 5 mg/kg",156 mL/min/kg
same,Cmax,"[2]; po, S-IG 5 mg/kg",436 ± 206 ng/mL
same,MRT,"[2]; po, S-IG 5 mg/kg",87.6 ± 29.4 min
same,Tmax,"[2]; po, S-IG 5 mg/kg",41.4 ± 33 min
same,half-life,"[2]; po, S-IG 5 mg/kg",49.8 ± 7.8 min
same,AUC,"[2]; po, S-IG 5 mg/kg",606 ± 236 ng·h/mL
same,Vd/F,"[2]; po, S-IG 5 mg/kg",11.5 ± 6.03 L/kg
same,AUC(0-inf),[2]; [7],195 ± 90 ng·h/mL
same,half-life,[2]; [7],49.8 ± 7.2 min
same,fraction unbound at 100 ng/mL,[3]; 100 ng/mL,0.267
same,fraction unbound at 200 ng/mL,[3]; 200 ng/mL,0.325
same,fraction unbound at 400 ng/mL,[3]; 400 ng/mL,0.384
same,fraction unbound at 50 ng/mL,"[4]; 50 ng/mL, mean",0.261
same,fraction unbound at 100 ng/mL,"[4]; 100 ng/mL, mean",0.247
same,fraction unbound at 200 ng/mL,"[4]; 200 ng/mL, mean",0.228
same,fraction unbound at 400 ng/mL,"[4]; 400 ng/mL, mean",0.211
same,fraction unbound,"[4]; rat, rats, concentration range 50–400 ng/mL",~0.25
same,"stability in plasma, accuracy","[5]; injector (24h, 4 °C), 2 ng/mL",105.00%
same,"stability in plasma, accuracy","[5]; injector (24h, 4 °C), 800 ng/mL",101.55%
same,"stability in plasma, accuracy","[5]; long-term freezing (−80 °C, 30 days), 2 ng/mL",112.40%
same,"stability in plasma, accuracy","[5]; long-term freezing (−80 °C, 30 days), 800 ng/mL",101.50%
same,stability in rat plasma,"[5]; long-term freezing, repeated freezing and thawing, 37 °C 8 h, injector 4 °C 24 h",stable
same,"stability in plasma, accuracy","[5]; normal temperature (8h), 2 ng/mL",105.90%
same,"stability in plasma, accuracy","[5]; normal temperature (8h), 800 ng/mL",97.70%
same,"stability in plasma, accuracy","[5]; repeated freeze-thaw (three times), 2 ng/mL",97.40%
same,"stability in plasma, accuracy","[5]; repeated freeze-thaw (three times), 800 ng/mL",97.33%
same,logP,[6],2.8023
